The test system of test [1] is Monocytes. The experiment in a line: High throughput transmigration assay (Example 9), chemorepulsion. The format is cell-based, human. Conditions: mean of three donors at concentration of highest activity, range 0.00125-1.25 μM. From the text: (§1) An agent's repellent index is the ratio of chemorepulsion (CR) to spontaneous migration (SM) induced by the agent, i.e., [(CR)/(SM)]. […] For example, in calculating a RI for an agent, migratory responses including chemorepulsion (CR) and spontaneous migration (SM) may be measured over several decades or log scales of concentration. If, over any two consecutive measurements at concentrations which differ by at least 10 fold, the ratio of CR to SM at each of the two contiguous measurements is equal to or greater than 1.2, then the agent is considered a validated chemorepellent.
(§2) For primary human T cells, up to 80 ml of blood is drawn from a human donor in sodium heparin Vacutainer tubes (Becton-Dickinson). The blood (between 10 and 15 ml per tube) is then layered onto 30 ml of Lymphocyte Separation Medium (LSM) (Cellgro, Herndon, Va.) in a 50 ml conical centrifuge tube and centrifuged for 20 minutes at 2440×g in a swinging bucket rotor. After removing the majority of the plasma from the top of each tube, the peripheral blood mononucleocyte (PBMC) layer is removed and transferred to fresh 50 ml conical centrifuge tubes. The tubes are then filled to 50 ml with IMDM and centrifuged for 10 minutes at 500×g. All but approximately 5 ml of the supernatant is then removed and the pellet resuspended with 25 ml IMDM and the centrifugation repeated. After removal of the supernatant, the cells are resuspended and combined to one 50 ml tube (per subject) and brought to a total volume of 50 ml. The cells are then counted using a hemacytometer (Reichert). After centrifugation under the same conditions, the supernatant is removed and the cells processed using the appropriate Miltenyi Biotec (Auburn, Calif.) negative selection kit to enrich for the desired cell type according to manufacturers instructions. The resulting purified cells are then diluted to 50 ml with IMDM. After centrifugation at 500×g for 10 minutes, the supernatant is removed and the cells resuspended in 15 ml IMDM supplemented with 0.5% heat inactivated fetal calf serum (FCS) (ATCC, Manassas, Va.). After another centrifugation for 10 minutes at 500×g, the supernatant is again removed and the cells resuspended in 7 ml 0.5% FCS in IMDM (assay medium) and transferred to a 15 ml conical centrifuge tube. The cells are then quantitated using a hemacytometer. When enriching for monocytes, the concentration of cells is adjusted to 2×10^7 per ml by centrifugation and removal of the appropriate volume of assay medium. For all other cell types, the tube cap is replaced with one from a 25 cm^2 tissue culture flask (Corning) and the cells stored overnight in a humidified 37° C. incubator with 5% CO2. The concentration of the cells is adjusted as for monocytes just prior to transmigration assay of Example 9.
It is noted that this procedure may be used to isolate and/or purify monocytes. In the monocyte purification method, a further step is included for platelet removal via the use of CD61 microbeads also purchased from Miltenyi Biotec (Auburn, Calif.).
(§3) Migration away from a chemical or biological agent (chemorepulsion (CR)) was measured using ChemoTx plates (Neuroprobe). These plates contain a planar polycarbonate or polyester membrane that has been etched and perforated so that cells can move along the etched tracks and fall through perforation holes, enabling the cells to be collected and the number of migrated cells quantified (FIGS. 5-6). Several dilutions (normally 4 in 10-fold increments) are prepared of the agent of interest. For neutrophils, plates with 3 μm pore membranes are used, while for all other primary cell types, 5 μm pore membranes are used. Membranes may, or may not, be coated with polyvinylpyrrolidine (PVP) as a wetting agent.
For spontaneous migration controls and chemorepulsion (CR) assays, 31 μl of assay medium is pipetted into the lower well of the transmigration apparatus (FIGS. 5-6). […]

For test [2], the system named is Monocyte. Kind of test: Trans-well migration assay (Example 1), net migratory response. Conditions: Monocyte; net observed response.
Protocol: Prior to beginning the assay 0.5% Fetal Calf Serum (FCS) in Iscove's Modified Dulbecco's Medium (IMDM) is prepared and stored on ice (Assay Medium). Migratory cells at a concentration of 2×10^7 cells/ml are suspended in Assay Medium. T-cells isolated from donor blood or buffy coats are allowed to rest overnight in Assay Medium at 37° C. in 5% CO2. Neutrophils, monocytes and B cells are utilized as soon as they are purified from donor blood or other source of human origin. Four serial (10×) dilutions of the ligand are then prepared in Assay Medium (normally 10 μg/ml to 0.01 μg/ml).
Plates are removed from the packaging, leaving the membrane behind and intact. The membrane is set aside. Into each well is pipetted 31 μl of solution. For media controls and fugetaxis (chemorepellent) samples, Assay Medium is used. For chemoattraction samples, the appropriate dilution of agent in assay medium is used.
Using a sterile needle, all small bubbles present in each well are popped and the membrane is carefully placed onto the plate, starting at one side and slowly lowering the other edge onto the plate.
Then 29 μl is pipetted into each circle imprinted on the polycarbonate or polyester membrane. For media controls and chemoattraction samples, Assay Medium is used. For fugetaxis (chemorepellent) samples, the appropriate dilution of ligand in assay medium is used.
To each 29 uL aliquot above is added 2 μl of cells (40,000 cells). It is important to ensure that before beginning the cells are well suspended and that they are mixed. This mixing can be accomplished by agitating the tube between each addition.
The plate is then covered with the supplied lid and incubated 1-3 hours in a humidified incubator at 37° C. in 5% CO2. Following the incubation period, the liquid from the top of the plate is removed with a tissue or similar blotting material (e.g. a Kimwipe). The membrane is carefully removed from the top of the plate and discarded. […] Using a multichannel pipettor, each well of the microplate is rinsed with 25 μl Phosphate Buffered Saline (Mediatech #21-040-CV) and transferred to the same wells in the white microplate. Using a multichannel pipettor, 50 μl CellTiter-Glo Luminescent Cell Viability Assay (Promega #G7572) is added to each well and mixed.
The plate is read using the Perkin Elmer Victor^3V plate reader using the Large Aperture Luminescence setting at 8 mm height above the plate with a dwell time of 1 s to quantify the number of migrated cells.
The results reported reflect the net observed migratory response of the cells to the ligand and are not based on the definition of unimodal fugetaxins.
For test [3], the system named is CD8+. The experiment in a line: High throughput transmigration assay (Example 9), chemorepulsion. The format is cell-based, human. Particulars: mean of three donors at concentration of highest activity, range 0.00125-1.25 μM.
From the text: as §1, §2, §3
(§4) For spontaneous migration controls and chemorepulsion (CR) assays, 31 μl of assay medium is pipetted into the lower well of the transmigration apparatus (FIGS. 5-6). For spontaneous migration controls and chemoattraction (CA) assays, 29 μl of assay medium is pipetted into upper chamber of the transmigration apparatus (FIG. 5). For CR, the upper well assay medium contains the agent or candidate chemorepellent. […]

Test [4] has as its system Human primary CD8+ lymphocytes. The experiment in a line: Trans-well migration assay (Example 3 method), unimodal fugetaxin test. The format is cell-based. Details: key: A “+” in the Table indicates a positive hit as a unimodal fugetaxin, as that term is defined herein, for that particular cell type. Conditions: methods of Example 3.
Test [5] has as its system Human primary CD4+ lymphocytes. The test is described as above. Format: cell-based. Details: key: A “+” in the Table indicates a positive hit as a unimodal fugetaxin, as that term is defined herein, for that particular cell type. Conditions: methods of Example 3.
Test [6] relates to Neutrophils. The experiment in a line: High throughput transmigration assay (Example 9), chemorepulsion. Format: cell-based, human.
Test [7] concerns Human primary neutrophils. Kind of test: Trans-well migration assay (Example 3 method), unimodal fugetaxin test. Conditions: for Unimodal fugetaxin hit, Neutrophils: human neutrophils, methods of Example 3. More on the design: key to Unimodal fugetaxin hit, Neutrophils: A “+” in the Table indicates a positive hit as a unimodal fugetaxin, as that term is defined herein, for that particular cell type. The format is cell-based.

The test system of test [8] is B cells. Kind of test: High throughput transmigration assay (Example 9), chemorepulsion. The format is cell-based, human. More on the design: key: ratio of chemorepulsion (CR) to spontaneous migration (SM), CR/SM. Conditions: mean of three donors at concentration of highest activity.
From the text: as §1, §2, §3, §4

Test [9] deals with CD4+. Described as above. Conditions: mean of three donors at concentration of highest activity, range 0.00125-1.25 μM. Format: cell-based, human.
From the text: as §1, §2, §3, §4

Test [10] relates to Eo-HL60 (HL-60 clone 15 differentiated to eosinophil-like phenotype). Kind of test: Trans-well migration assay (Example 1), net migratory response. Format: cell-based, human. Conditions: net observed response.
Setting [11] is: Neutrophils, mean of three donors at concentration of highest activity, range 0.00125-1.25 μM.

On to CCL7: chemokine, for which the “Repellent Index” value in test [1] was determined as 2.3.
As to “Galectin-3: carbohydrate binding protein (galectin), full-length, purchased; accession P17931/BAA22164/NP_002297”, the “Migratory Response” value in test [2] is on record as “chemorepulsion”. Further, the “Repellent Index” value in [3] stood at 1.3; in [6] (setting [11]), 1.6. Also, the “Unimodal fugetaxin hit, CD8+” value in [4] is reported as “+”. In addition, the “Unimodal fugetaxin hit, CD4+” value in test [5] was “+”. Further, the “Unimodal fugetaxin hit, Neutrophils” value in test [7] was “+”. For the same molecule, the “chemotactic (chemoattractant) versus fugetactic (chemorepellent) response of neutrophils” value in test [7] (neutrophils, 1 hour, FIGS. 3 and 4, at 10 uM where stated) is listed as “almost three times as fugetactic (chemorepellent) as chemotactic (chemoattractant)”.
In the case of CCL13: chemokine, the “Repellent Index” value in test [1] is 2.6.
As for CCL2: chemokine, the “Repellent Index” value is given as 1.5 in [8] (range 0.00125-1.25 μM) and 1.7 in [1].
With “Elafin: elastase inhibitor (AQEPVKGPVSTKPGSCPIILIRCAMLNPPNRCLKDTDCPGIKKCCEGSCGMACFVPQ; UniProt P19957 61-117, looked up)”, the “Repellent Index” value in test [9] amounted to 1.3; in test [6] (setting [11]) it was 2.0; in test [6] (neutrophils, 0.00125 μM, one donor, triplicate, ± SD) it was 1.33 ± 0.28; in [6] (neutrophils, 0.0125 μM, one donor, triplicate, ± SD) it was 1.31 ± 0.29; in test [6] (neutrophils, 0.125 μM, one donor, triplicate, ± SD), 1.48 ± 0.22; in [6] (neutrophils, 1.25 μM, one donor, triplicate, ± SD), 2.42 ± 0.52.
In the case of Pam3CSK4 [reference compound], the “Unimodal fugetaxin hit, CD8+” value in test [4] is “+”. In [5], the “Unimodal fugetaxin hit, CD4+” value is listed as “+”. The “Migratory Response” value in [10] is reported as “chemorepulsion”. For the same molecule, the “Repellent Index” value in test [6] (setting [11]) is on record as 4.9. The “Unimodal fugetaxin hit, Neutrophils” value in test [7] is “+”.

B1: HSP25: heat shock protein; accession AAA37862 (protein, UniProt P14602 1-209, looked up)
Heat shock protein beta-1: MTERRVPFSLLRSPSWEPFRDWYPAHSRLFDQAFGVPRLPDEWSQWFSAAGWPGYVRPLPAATAEGPAAVTLAAPAFSRALNRQLSSGVSEIRQTADRWRVSLDVNHFAPEELTVKTKEGVVEITGKHEERQDEHGYISRCFTRKYTLPPGVDPTLVSSSLSPEGTLTVEAPLPKAVTQSAEITIPVTFEARAQIGGPEAGKSEQSGAK
Turning to B1, the “Repellent Index” value is 1.3 in test [3] and 11.9 in test [6] (setting [11]). Besides, in test [7], the “Unimodal fugetaxin hit, Neutrophils” value is “+”.

B2: CCL15: chemokine (protein, UniProt Q16663 22-113, looked up)
C-C motif chemokine 15: QFTNDAETELMMSKLPLENPVVLNSFHFAADCCTSYISQSIPCSLMKSYFETSSECSKPGVIFLTKKGRQVCAKPSGPGVQDCMKKLKPYSI
In the case of B2, in test [1], the “Repellent Index” value worked out at 1.4.

B3: HSP47 Human: heat shock protein; accession AAP35758 (protein, UniProt P50454 19-418, looked up)
Serpin H1: AEVKKPAAAAAPGTAEKLSPKAATLAERSAGLAFSLYQAMAKDQAVENILVSPVVVASSLGLVSLGGKATTASQAKAVLSAEQLRDEEVHAGLGELLRSLSNSTARNVTWKLGSRLYGPSSVSFADDFVRSSKQHYNCEHSKINFRDKRSALQSINEWAAQTTDGKLPEVTKDVERTDGALLVNAMFFKPHWDEKFHHKMVDNRGFMVTRSYTVGVMMMHRTGLYNYYDDEKEKLQIVEMPLAHKLSSLIILMPHHVEPLERLEKLLTKEQLKIWMGKMQKKAVAISLPKGVVEVTHDLQKHLAGLGLTEAIDKNKADLSRMSGKKDLYLASVFHATAFELDTDGNPFDQDIYGREELRSPKLFYADHPFIFLVRDTQSGSLLFIGRLVRPKGDKMRDEL
B3: the entries for the “Repellent Index” value in test [3], in test [8] (range 0.00125-1.25 μM) and in [6] (setting [11]) were 1.4, 1.5 and 1.4, respectively. The “Migratory Response” value in [10] is recorded as “chemorepulsion”.

B4: S. typhimurium Flagellin: TLR ligand; accession M11332 (protein, UniProt P06179 2-495, looked up)
Flagellin: AQVINTNSLSLLTQNNLNKSQSALGTAIERLSSGLRINSAKDDAAGQAIANRFTANIKGLTQASRNANDGISIAQTTEGALNEINNNLQRVRELAVQSANSTNSQSDLDSIQAEITQRLNEIDRVSGQTQFNGVKVLAQDNTLTIQVGANDGETIDIDLKQINSQTLGLDTLNVQQKYKVSDTAATVTGYADTTIALDNSTFKASATGLGGTDQKIDGDLKFDDTTGKYYAKVTVTGGTGKDGYYEVSVDKTNGEVTLAGGATSPLTGGLPATATEDVKNVQVANADLTEAKAALTAAGVTGTASVVKMSYTDNNGKTIDGGLAVKVGDDYYSATQNKDGSISINTTKYTADDGTSKTALNKLGGADGKTEVVSIGGKTYAASKAEGHNFKAQPDLAEAAATTTENPLQKIDAALAQVDTLRSDLGAVQNRFNSAITNLGNTVNNLTSARSRIEDSDYATEVSNMSRAQILQQAGTSVLAQANQVPQNVLSLLR
With B4, the “Migratory Response” value in test [2] is on record as “chemorepulsion”. In addition, the “Unimodal fugetaxin hit, CD8+” value in test [4] is “+”. For the same molecule, the “Repellent Index” value in test [8] (range 0.01-10 μg/ml) is listed as 1.7; in [6] (Neutrophils, mean of three donors at concentration of highest activity, range 0.01-10 μg/ml), 5.5. For the same molecule, the “Unimodal fugetaxin hit, CD4+” value in [5] is reported as “+”. In addition, the “Unimodal fugetaxin hit, Neutrophils” value in test [7] was “+”.

B5: CCL8: chemokine (protein, UniProt P80075 24-99, looked up)
C-C motif chemokine 8: QPDSVSIPITCCFNVINRKIPIQRLESYTRITNIQCPKEAVIFKTKRGKEVCADPKERWVRDSMKHLDQIFQNLKP
Take B5: the “Repellent Index” value in test [8] (range 0.00125-1.25 μM) turned out to be 2.6; in [1], 2.3.

B6: CXCL7: chemokine (protein, UniProt P02775 35-128, looked up)
Platelet basic protein: SSTKGQTKRNLAKGKEESLDSDLYAELRCMCIKTTSGIHPKNIQSLEVIGKGTHCNQVEVIATLKDGRKICLDPDAPRIKKIVQKKLAGDESAD
On to B6, for which the “Repellent Index” value in [6] (setting [11]) came out at 3.9; in test [1] it was 1.4.

B7: CCL19: chemokine (protein, UniProt Q99731 22-98, looked up)
C-C motif chemokine 19: GTNDAEDCCLSVTQKPIPGYIVRNFHYLLIKDGCRVPAVVFTTLRGRQLCAPPDQPWVERIIQRLQRTSAKMKRRSS
For B7, the “Repellent Index” value in [9] was 1.7; in test [8] (range 0.00125-1.25 μM), 2.0; in test [6] (setting [11]), 1.5.

The values are drawn from patent US9617330B2, “Chemorepulsion of cells” (Celtaxsys, Inc., priority 2006, dated 2017).
